“Also recorded” adds a separate entry of the source.
Legend:
[1] = tested on: Mature biofilms of wild type C. albicans; experiment: Potentiation of biofilm killing by miconazole, CFU analysis; assay type: cell-based, Candida albicans; conditions: for biofilm killing by the compound alone (CFU): alone: 100 μg/ml miconazole or 200 μg/ml hit compound
Description: Next, the same checkerboard assay was repeated to test the ability of the hit compounds to potentiate biofilm killing by miconazole. Mature biofilms of wild type C. albicans were challenged with 100 μg/ml miconazole, 200 μg/ml of the hit compound, or a combination of the two for 24 hrs. Biofilms were then washed, scraped, resuspended in PBS, vortexed for 30 seconds and plated for CFU analysis.

[2] = tested on: Candida albicans strain CAF4-2 biofilms; assay type: cell-based; conditions: for inhibition of metabolic activity by the compound alone (XTT): any concentration tested
Description: Specifically, a screen was developed using C. albicans cells treated with miconazole at subinhibitory concentrations, to which candidate potentiator compounds were added. […] In order to make the screen compatible with high-throughput approaches, biofilms were grown in microtiter plates and the reduction of a vital dye XTT, commonly used to monitor yeast viability, was used as the quantitative readout.
Microtiter plate wells were seeded with wild type Candida albicans strain CAF4-2. Biofilms were grown for 48 hrs at 37° C., washed with PBS pH 7.4, and resuspended in a final volume of 100 μl RPMI containing 10 μg/ml miconazole. Individual compounds from ChemBridge DiverSet E (ChemBridge Corp., San Diego, Calif.) were then added at 10 μg/ml to the wells. Plates were incubated for 24 hrs and XTT (Sigma-X4751) was added at 1 mg/ml to each well. After 4 hrs of incubation at 37° C., reduction of XTT was monitored by recording the optical density at 690 nm (subtracted from OD450) with a microtiter plate reader. Hits were identified when XTT reduction was inhibited by more than 30% of the control values.
A checkerboard assay was then performed to examine possible synergy between miconazole and the hits. 100 μg/ml miconazole (2× dilution in each subsequent well, y-axis) and 100 μg/ml compound AC9 (2× dilution, x-axis) were added to mature 48 hr wild type C. albicans biofilms and incubated for an additional 24 hrs in the presence of the drugs. XTT was added to each well at 1 mg/ml and biofilms were incubated at 37° C. for an additional 4 hrs.
As described in Example 2, initially 5,000 compounds of the 16,000 from the ChemBridge library were screened for potentiators of miconazole action against C. albicans biofilms. A larger screen is conducted on the remaining 11,000 compounds from the ChemBridge library. Screening is performed as described in Example 2 using 96-well plates. Candida biofilms are formed by growing cells for 48 hrs at 37° C. in a shaking incubator in 96-well microtiter plates according to standard protocol (Ramage et al., Antimicrob. Agents Chemother. 45:2475-2479 (2001)). […] 10 μg/ml miconazole is added to each well and 10 μg/ml of unique compounds is added to rows 2-11 and the plates are incubated for 24 hrs at 37° C. XTT is then added to each well at 1 mg/ml and the plates are incubated for an additional 4 hrs at 37° C. The amount of XTT converted to dye is quantified with a plate reader by subtracting the optical density at 690 nm from the optical density at 450 nm. […] Positive hits are scored when the optical density of the experimental well is <0.7.

[3] = tested on: Biofilms of C. albicans 3153A cells; experiment: C. albicans biofilm killing by antifungals, CFU determination; assay type: cell-based, Candida albicans; conditions: for shape of biofilm killing curve: dose-dependent
Description: Biofilms of C. albicans 3153A cells were cultured in wells of microtiter plates in RPMI medium for 48 hrs (Ramage et al., Antimicrob. Agents Chemother. 45:2475-2479 (2001)), washed twice in PBS pH 7.4 to remove nonadherent cells, and resuspended in 100 μl RPMI growth medium containing antifungals. After 24 hrs of antifungal challenge, the biofilms and cultures were washed twice, resuspended in 100 μl PBS, scraped, transferred into eppendorf tubes, vortexed and plated for colony forming unit (CFU) determination on YPD medium. […] In parallel, exponentially growing and stationary planktonic cultures were grown for 48 hrs in RPMI medium, and then antifungals were added for 24 hrs. The experiment was performed in triplicate and error bars indicate standard deviation (see FIG. 1).
Biofilms were grown in microtiter plates and were treated with amphotericin B or chlorhexidine (100 μg/ml) for 24 hrs, after which they were washed and vortexed, as discussed above. The cells were then reinoculated into microtiter plates to form new biofilms. The new biofilms, derived from persisters that survived drug treatment, were again treated with the antifungal agents (as discussed above), and the procedure was repeated a total of 3 times. Biofilms were sampled for CFU determination before and after antifungal treatment. The experiment was performed in triplicate.
Tests were also performed to determine if yeast persisters were multidrug tolerant. Mature, 48 hr biofilms of C. albicans were challenged for 24 hrs with 100 μg/ml amphotericin B, 100 μg/ml chlorhexidine, or a combination of these two antifungal agents, using the same procedures discussed above. Biofilms were washed and sampled for CFU determination before and after antifungal treatment, as discussed above.

[4] = tested on: biofilm-deficient strains of C. albicans; experiment: Persister formation by biofilm-deficient strains (survival to high levels of amphotericin B); assay type: cell-based, Candida albicans
Description: (§1) Biofilms of C. albicans 3153A cells were cultured in wells of microtiter plates in RPMI medium for 48 hrs (Ramage et al., Antimicrob. Agents Chemother. 45:2475-2479 (2001)), washed twice in PBS pH 7.4 to remove nonadherent cells, and resuspended in 100 μl RPMI growth medium containing antifungals. After 24 hrs of antifungal challenge, the biofilms and cultures were washed twice, resuspended in 100 μl PBS, scraped, transferred into eppendorf tubes, vortexed and plated for colony forming unit (CFU) determination on YPD medium. […] This could lead to an underestimation of surviving cells by a factor of ≦10. In parallel, exponentially growing and stationary planktonic cultures were grown for 48 hrs in RPMI medium, and then antifungals were added for 24 hrs. The experiment was performed in triplicate and error bars indicate standard deviation (see FIG. 1).
[…] A large panel of biofilm-defective mutants was therefore tested for their ability to produce persisters by measuring survival to high levels of amphotericin B. These mutants were able to adhere to the surface of a microtiter plate, making it possible to assay in the biofilm survival protocol described above. Unexpectedly, all strains appeared to produce essentially normal levels of persisters (Table 1).

[5] = tested on: C. albicans 3153A planktonic cultures; experiment: Killing of exponentially growing and stationary planktonic cultures, CFU; assay type: cell-based, Candida albicans; conditions: antifungal added for 24 hrs
Description: as §1

C. albicans = experiment: MIC; assay type: cell-based, Candida albicans
[6] = mouse; cited from earlier work

## Oc1c(/N=N/c2ccccn2)ccc2ccccc12 [AC9]
[1]; 100 μg/ml miconazole + 200 μg/ml compound, 24 hrs
  biofilm killing in the presence of miconazole (CFU): Complete eradication; also recorded: completely eradicated
[1]; 24 hrs
  biofilm killing by the compound alone (CFU): Neither miconazole nor AC9 alone had any killing activity
[1]; with miconazole
  minimal concentration at which the compound potentiates complete killing of C. albicans by miconazole: 100 µg/mL
[2]; AC9 at 10 μg/ml plus 10 μg/ml miconazole, negative control >1
  calculated OD value (OD450 minus OD690) of the positive control: 0.4
[2]
  inhibition of metabolic activity by the compound alone (XTT): Neither miconazole nor AC9 alone inhibited metabolic activity
[2]; in the presence of 12.5 μg/ml miconazole, 48 hr biofilm, 24 hrs
  lowest concentration with inhibition of metabolic activity (XTT checkerboard): 3.1 µg/mL
[2]; up to 100 μg/ml each, 2x dilutions
  synergy with miconazole (XTT checkerboard): clear synergy
[2]; with miconazole
  rank among the hits in the XTT reduction inhibition checkerboard assay: most active compound among the hits

## CC[C@H](C)C[C@H](C)CCCCCCCCC(=O)N[C@H]1C[C@@H](O)[C@@H](NCCN)NC(=O)[C@@H]2[C@@H](O)CCN2C(=O)[C@H]([C@H](O)CCN)NC(=O)[C@H]([C@H](O)[C@@H](O)c2ccc(O)cc2)NC(=O)[C@@H]2C[C@@H](O)CN2C(=O)[C@H]([C@@H](C)O)NC1=O [Caspofungin, caspofungin]
[3]; 48 hr biofilm, 24 hrs antifungal challenge, CFU
  killing of biofilms: ≤ 10 fold

## C[C@@H]1[C@H](O)[C@@H](C)/C=C/C=C/C=C/C=C/C=C/C=C/C=C/[C@H](O[C@@H]2O[C@H](C)[C@@H](O)[C@H](N)[C@@H]2O)C[C@@H]2O[C@](O)(C[C@@H](O)C[C@@H](O)[C@H](O)CC[C@@H](O)C[C@@H](O)CC(=O)O[C@H]1C)C[C@H](O)[C@H]2C(=O)O [amphotericin B]
[4]; strain 3153A
  Persisters: +++^1 (1-2% survival)
[4]; strain CAI4
  Persisters: +^3 (0.05-0.1% survival)
[4]; strain CJN698
  Persisters: ++ (0.1-1% survival)
[4]; strain CJN702
  Persisters: ++ (0.1-1% survival)
[4]; strain CKY136
  Persisters: +++ (1-2% survival)
[4]; strain CKY138
  Persisters: ++ (0.1-1% survival)
[4]; strain CKY357
  Persisters: ++^2 (0.1-1% survival)
[4]; strain DAY185
  Persisters: ++ (0.1-1% survival)
[4]; strain DAY286
  Persisters: ++ (0.1-1% survival)
[4]; strain GKO9
  Persisters: ++ (0.1-1% survival)
[4]; strain GKO443
  Persisters: ++ (0.1-1% survival)
[4]; strain GKO798
  Persisters: ++ (0.1-1% survival)
[4]; strain GKO814
  Persisters: ++ (0.1-1% survival)
[4]; strain MC191
  Persisters: +++ (1-2% survival)
[4]; strain MC195
  Persisters: + (0.05-0.1% survival)
[4]; strain MC245
  Persisters: ++ (0.1-1% survival)
[3]; 24 hrs challenge, CFU
  shape of biofilm killing curve: biphasic killing
[3]; higher concentrations, 24 hrs challenge
  biofilm cells invulnerable to the drug (persisters): More than 1%
[5]
  killing of exponentially growing and stationary planktonic cells: effectively killed exponentially growing and stationary cells

## [H]/N=C(\N/C(=N/[H])NCCCCCCNC(=N)NC(=N)Nc1ccc(Cl)cc1)Nc1ccc(Cl)cc1 [chlorhexidine]
[3]; 24 hrs challenge
  concentration at which killing of persisters was observed: above 100 μg/ml
  concentration at which the biofilm was completely sterilized: 1000 µg/mL
[3]; 24 hrs challenge, CFU
  shape of biofilm killing curve: biphasic killing
[5]
  killing of exponentially growing and stationary planktonic cells: eliminated

## Clc1ccc(COC(Cn2ccnc2)c2ccc(Cl)cc2Cl)c(Cl)c1 (stereo not shown) [miconazole]
[1]; 24 hrs
  biofilm killing by the compound alone (CFU): Neither miconazole nor AC9 alone had any killing activity
C. albicans
  MIC of logarithmically growing cells: 0.03 μg/ml
[2]
  inhibition of metabolic activity by the compound alone (XTT): Neither miconazole nor AC9 alone inhibited metabolic activity
[2]; miconazole alone at 10 μg/ml, 24 hrs
  XTT reduction by biofilm: indistinguishable from biofilms with no miconazole
[6]
  LD50: 519 mg/kg

Reference: US20100130450A1, “Methods of Treating Fungal Infections” (NORTHEASTERN UNIVERSITY, priority 2007, published 2010)
